Reference: PMC6983068, “Identifying Ortholog Selective Fragment Molecules for Bacterial Glutaredoxins by NMR and Affinity Enhancement by Modification with an Acrylamide Warhead” (Molecules, 2019)

Columns and labels:
hGRX1 = biological target: T1, hGRX1 (Homo sapiens, UniProt P35754); assay type: binding; conditions: read-out: hGRX1 Kd ± S.D.
T1 sequence (P35754 2-106): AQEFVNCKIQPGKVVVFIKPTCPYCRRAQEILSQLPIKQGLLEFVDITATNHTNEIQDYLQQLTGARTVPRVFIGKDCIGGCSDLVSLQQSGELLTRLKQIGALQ

PaGRX = biological target: T2, PaGRX (Pseudomonas aeruginosa, UniProt Q9HU55); experiment: biochemical
T2 construct: gene grx

BrmGRX = biological target: T3, BrmGRX (Brucella melitensis, UniProt Q8YJA2); experiment: biochemical; assay type: binding
T3 construct: gene BMEI0184
T3 sequence (Q8YJA2 1-92): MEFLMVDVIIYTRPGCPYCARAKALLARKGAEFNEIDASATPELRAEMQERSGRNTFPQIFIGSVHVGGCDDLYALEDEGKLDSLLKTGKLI

T2 sequence (Q9HU55 whole entry): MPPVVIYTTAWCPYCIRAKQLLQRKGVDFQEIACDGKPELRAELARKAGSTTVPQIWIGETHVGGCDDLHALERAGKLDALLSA

Row | SMILES | Kd (hGRX1) [µM] | Kd (PaGRX) [µM] | Kd (BrmGRX) [µM]
1 | Cn1nc(C(=O)O)cc1-c1ccccc1 [RK246] | 5220 ± 1160 | 8480 ± 2060 | –
2 | Cc1cc2ncc(C(=O)O)c(C)n2n1 [RK208] | 1610 ± 190 | 560 ± 80 | 2280 ± 300
3 | Cn1nc(-c2ccco2)cc1C(=O)O [RK144] | 5420 ± 900 | 1920 ± 420 | 5240 ± 920
4 | O=C(O)c1cc(-c2ccco2)[nH]n1 [RK104] | 2890 ± 470 | 720 ± 160 | 900 ± 150
5 | O=C(O)c1ccc(-n2cccc2)cc1 [RK207] | 2450 ± 520 | 1900 ± 340 | –
6 | O=C(O)c1ccc(-n2cccn2)cc1 [RK192] | 5050 ± 1270 | 5260 ± 1120 | 5560 ± 510
7 | CN1CCN(C)c2cc(CN)ccc21 [RK395] | 1860 ± 1150 | 510 ± 370 | 5490 ± 3220
